Test results published in ChEMBL document CHEMBL1687787, “Emergence and Distribution of Plasmids Bearing the blaOXA-51-like gene with an upstream ISAba1 in carbapenem-resistant Acinetobacter baumannii isolates in Taiwan” (2010).
Values after ≈ are worked out from the molar mass of the structure shown. Active and inactive are the calls of the source. The calls are words filed in the database; no cut-off is given here.

Key:
Acinetobacter baumannii [1] = test: Antimicrobial activity against Acinetobacter baumannii clinical isolate harboring plasmid encoded ISAba1-blaOXA-51-like gene with nuc upstream sequence by agar dilution method in presence of Tazobactam; type: functional, organism-based
Acinetobacter baumannii [2] = test: Antimicrobial activity against Acinetobacter baumannii clinical isolate harboring chromosomally encoded ISAba1-blaOXA-51-like gene with fxsA upstream sequence by agar dilution method in presence of Tazobactam; type: functional, organism-based
Acinetobacter baumannii [3] = test: Antimicrobial activity against Acinetobacter baumannii F-type isolate by agar dilution method; type: functional
Acinetobacter baumannii [4] = test: Antimicrobial activity against Acinetobacter baumannii ATCC 15151 by agar dilution method; type: functional
Acinetobacter baumannii [5] = test: Antimicrobial activity against Acinetobacter baumannii ATCC 15151 transformed with shuttle vector carrying beta-lactamase OXA-82 by agar dilution method; type: functional
Acinetobacter baumannii [6] = test: Antimicrobial activity against Acinetobacter baumannii ATCC 15151 transformed with plasmid harboring ISAba1-blaOXA-82 by agar dilution method; type: functional
Acinetobacter baumannii [7] = test: Antimicrobial activity against Acinetobacter baumannii F-type isolate transformed with plasmid harboring ISAba1-blaOXA-82 by agar dilution method

Row | Compound | Activity (Acinetobacter baumannii [1]) | Activity (Acinetobacter baumannii [2]) | MIC (Acinetobacter baumannii [3]) | MIC (Acinetobacter baumannii [4]) | MIC (Acinetobacter baumannii [5]) | MIC (Acinetobacter baumannii [6]) | MIC (Acinetobacter baumannii [7])
1 | CCN1CCN(C(=O)N[C@@H](C(=O)N[C@@H]2C(=O)N3[C@@H]2SC(C)(C)[C@@H]3C(=O)O)c2ccccc2)C(=O)C1=O | inactive | inactive |  |  |  |  | 
2 | C[C@@H](O)[C@H]1C(=O)N2C(C(=O)O)=C(SCCNC=N)C[C@H]12 [IMIPENEM ANHYDROUS] |  |  | 4 µg/mL (≈ 13.4 µM) | 0.5 µg/mL (≈ 1.67 µM) | 2 µg/mL (≈ 6.68 µM) | 32 µg/mL (≈ 107 µM) | 64 µg/mL (≈ 214 µM)
